Measurements reported in PMC11251039, “Harnessing cholesterol uptake of malaria parasites for therapeutic applications” (EMBO Molecular Medicine, 2024).
Where “and” joins values, the source holds several entries; their conditions need not be identical. Equal values may be shown once. Read-outs that look alike come from different tables or passages of the source.

How the values were obtained:
[1] = system: human embryonic kidney cells (HEK293); experiment: Human embryonic kidney cell viability assay (MTT); format: cell-based; conditions: Homo sapiens; 96 h, HEK293; read-out: IC50, human embryonic kidney cell inhibition (viability)
Method: HEK293 cell viability assays commenced with 5000 cells per well. 10 µg/mL cycloheximide was used as a no-growth control. Metabolic capacity (indicating viability) was measured in an absorbance microplate reader after incubation with 0.45 mg/mL methylthiazolyldiphenyl-tetrazolium bromide (MTT; Sigma M2128) for 2 h followed by crystal solubilisation in SDS. […]
Human Embryonic Kidney Cell Viability Assays:
Human Embryonic Kidney Cell (HEK293) culture:
The HEK293 cell line was maintained under routine culture conditions in DMEM containing 3.7 g/L NaHCO3 supplemented with 10% FBS, 200 μM glutamine, 100 units/mL penicillin, and 100 μg/mL streptomycin at 37 °C in a humidified 5% CO2 incubator.
Cells were detached from a flask using 0.25% Trypsin with 0.2 g/L EDTA (Sigma T4049) and washed with culture media containing no phenol red. Cells were incubated with a serial dilution of each compound, or media/DMSO alone. The protein synthesis inhibitor cycloheximide (Sigma 01810) at 10 µg/mL was used as a positive control to determine background absorbance. 5,000 cells were seeded in each well. After 96 hours, 0.45 mg/mL methylthiazolyldiphenyl-tetrazolium bromide (MTT; Sigma M2128) was added and incubated for a further two hours, before mixing 1.1:1 with 10% w/v sodium dodecyl sulfate (SDS) to solubilise crystals and freezing the plate at -18 °C to stop the assay. […]

[2] = system: asexual P. falciparum 3D7 wild-type parasites; experiment: P. falciparum asexual growth inhibition assay (SYBR Safe DNA replication); format: cell-based, Plasmodium falciparum; conditions: for P. falciparum asexual growth, percentage of control: replicate values, source data Fig. 2B, listed as BC9B; for IC50: Plasmodium falciparum, read-out: IC50, P. falciparum asexual growth inhibition
Summary of the method: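 Sorbitol-synchronised ring-stage cultures at 1% parasitaemia and 1% haematocrit were exposed to 2-fold compound dilutions at 37 °C under microaerophilic conditions for 24, 48 or 72 h. Growth was read by SYBR Safe fluorescence of freeze-thaw lysates, with 200 nM chloroquine or artesunate defining background.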

[3] = system: human hepatoma cells (Huh7); experiment: Human hepatoma viability assay (CellTiter-Blue); format: cell-based; conditions: for Huh7 viability, dose-response data points (Figure 3F): replicate data points, listed as BC9B
Method: (§1) Huh7 hepatoma viability assays were conducted in the same manner as the P. berghei assays, with metabolic capacity (indicating viability) measured with a fluorescence microplate reader after incubation with CellTiter-Blue® (Promega) for 3 h.
(§2) Appendix Fraser/Curtis et al. […]
(§3) Human Hepatoma Viability Assays:
(§4) The Huh7 hepatoma cell line (ATCC) was maintained under routine culture conditions in Dulbecco's Modified Eagle Medium (DMEM) containing 3.7 g/L NaHCO3 supplemented with 10% foetal bovine serum (FBS), 100 units/mL penicillin, and 100 μg/mL streptomycin at 37 °C in a humidified 5% CO2 incubator.
(§5) Viability assays were performed in parallel to the P. berghei growth inhibition. 10,000 Huh7 cells were seeded in 96-well and dark-sided microplates (Greiner Bio One) and cultured at 37°C, 5% CO2 and 80% humidity. The next day, the media was replaced with compounds or solvent controls (DMSO) serially diluted in culture media. Media was partially replaced with new drug dilutions over the following two days. After 48 hours, CellTiter-Blue® (Promega) was added according to the manufacturer’s instructions and incubated for 3 hours. Fluorescence intensity was measured with 530/25 ex and 590/20 em in a Synergy HTX plate reader (Agilent).

[4] = Human hepatoma viability assay (CellTiter-Blue); format: cell-based; conditions: human, Huh7 hepatoma cells, 0.137174210 uM; replicate data points; read-out: Huh7 viability, dose-response data points (Figure 3F)
Method: as §1, §2, §3, §4, §5

## COc1cc(NC(C)CCCNC(=O)CCC(=O)OC(C)C)c2ncccc2c1 (centres unmarked) [PQ-link]
[1]
  IC50: 13.3 µM
[2]; 0.390625000 uM, 24 h
  P. falciparum asexual growth, percentage of control: 112.3% and 89.93% and 91.19% and 112.1% and 102.3% and 68.21% and 112.6% and 108.2% and 99.03%
[2]; 0.781250000 uM, 24 h
  P. falciparum asexual growth, percentage of control: 111.4% and 122.1% and 101.9% and 105.4% and 82.4% and 103% and 111.6% and 99.14% and 89.9%
[2]; 1.562500000 uM, 24 h
  P. falciparum asexual growth, percentage of control: 124.5% and 109.9% and 95.57% and 96.52% and 118.5% and 100.1% and 113.4% and 107.6% and 105.7%
[2]; 3.125000000 uM, 24 h
  P. falciparum asexual growth, percentage of control: 111% and 101.9% and 103% and 119.5% and 108.6% and 102.2% and 109.1% and 102.4% and 93.98%
[2]; 6.250000000 uM, 24 h
  P. falciparum asexual growth, percentage of control: 79.77% and 100.5% and 104.2% and 100.4% and 95.65% and 80.04% and 97.39% and 93.98% and 89.23%
[2]; 12.500000000 uM, 24 h
  P. falciparum asexual growth, percentage of control: 91.36% and 89.64% and 70.76% and 87.57% and 76.11% and 68.83% and 96.23% and 85.41% and 71.02%
[2]; 25.000000000 uM, 24 h
  P. falciparum asexual growth, percentage of control: 68.25% and 69.29% and 40.14% and 53.66% and 42.59% and 27.83% and 74.48% and 57.35% and 79.45%
[2]; 50.000000000 uM, 24 h
  P. falciparum asexual growth, percentage of control: 54.3% and 2.851% and -9.844% and -3.605% and -29.04% and -23.19% and 22.95% and 7.441% and 8.158%
[2]; 3D7, 48 h
  IC50: 21.9 µM
[2]; 3D7, 72 h
  IC50: 16.1 µM
[2]; 3D7, 24 h, starting at ring stages
  IC50: 25.2 µM
[3]; 0.015241580 uM, 0.0152416 µM
  Huh7 viability, dose-response data points (Figure 3F): 107.3 and 97.91 and 99.21 and 88.27 and 85.99 and 85.17 and 77.48 and 99.67 and 102.9
[3]; 0.045724740 uM, 0.0457247 µM
  Huh7 viability, dose-response data points (Figure 3F): 101.4 (2×) and 102.9 and 96.11 and 84.48 and 82.6 and 86.76 and 77.19 and 99.77
[3]; 0.137174210 uM, 0.137174 µM
  Huh7 viability, dose-response data points (Figure 3F): 100.3 and 97.53 and 89.5 and 87.16 and 86.15 and 91.05 and 98.93 and 94.82
[3]; 0.411522630 uM, 0.411523 µM
  Huh7 viability, dose-response data points (Figure 3F): 98.17 and 99.16 and 96.93 and 83.82 and 84.25 and 87.07 and 70.92 and 100.4 and 90.7
[3]; 1.234567900 uM, 1.23457 µM
  Huh7 viability, dose-response data points (Figure 3F): 106.4 and 97.98 and 99.19 and 82.25 and 86.23 and 90.4 and 72.24 and 83.96 and 96.58
[3]; 3.703703700 uM, 3.7037 µM
  Huh7 viability, dose-response data points (Figure 3F): 96.27 and 98.44 and 90.47 and 77.12 and 78.19 and 82.37 and 76.62 and 90.94 and 92.11
[3]; 11.111111100 uM, 11.1111 µM
  Huh7 viability, dose-response data points (Figure 3F): 98.42 and 95.99 and 90.47 and 70.14 and 68.57 and 67.94 and 56.41 and 72.23 and 71.76
[3]; 33.333333300 uM, 33.3333 µM
  Huh7 viability, dose-response data points (Figure 3F): 79.4 and 75.47 and 83.67 and 39.88 and 39.61 and 43.08 and 30.62 and 36.38 and 34.72
[3]; 100.000000000 uM
  Huh7 viability, dose-response data points (Figure 3F): 33.18 and 40.69 and 39.77 and 19.19 and 19.87 and 20.01 and 9.61 and 11.04 and 10.16
[3]; Homo sapiens, Huh-7, 48 h, Huh7, read-out: IC50, human hepatoma inhibition (viability)
  IC50: 32.8 µM
[4]
  viability at 48 h, 0.137174 µM: 99.3%
